Source: patent US10618930B2, “Compounds for the treatment of cancer” (Eisai R&D Management Co., Ltd., priority 2017, dated 2020)
Where two headings read alike, the source gives them in different places. Values belong to the compound of their own block, whether it stands above or below them.

Tests used:
Human STING = Human STING (Homo sapiens, UniProt Q86WV6); assay: Human STING reporter assay, Tables 6-8 (variant named only in a drawing); details: read-out: Human STING EC50 (μM)
REF Human STING = REF Human STING (Homo sapiens, UniProt Q86WV6); assay: STING variant specific reporter assay, REF-STING (THP1-Dual KO-STING cells); details: read-out: Human STING EC50 (μM) REF; Table 5; ammonium salt form of each compound
CT26 tumors = assay: CT26 dual tumor model (mouse colon cancer model)
Description: For study B, treatment was started 8 days (0.6 mg/kg, and 10 mg/kg) after the tumor implantation, when the average tumors reached approximately 120 mm^3.
All the mice in the study have two subcutaneous CT26 tumors. The “treated tumor” indicates the tumor with compound direct administration, while “untreated tumor” indicates the tumor without direct compound administration. Tumor volume was followed throughout the experiment. Tumor volume is measured two times weekly after the start of treatment. Tumor burden is calculated from caliper measurements by the formula for the volume of a prolate ellipsoid (L×W^2)/2 where L and W are the respective orthogonal length and width measurements (mm).

[1] = tested on: hepatocytes of CD-1 mouse; assay: Hepatocyte incubation, metabolite identification (mouse); type: in vitro ADME; details: 10 μmol/L
Description: (§1) Prior to incubations, the cryopreserved hepatocytes were thawed in a water bath at 37° C. One tube of cryopreserved hepatocytes was added to each 50-mL conical tube of cryopreserved hepatocyte recovery medium (UCRM) obtained from In Vitro ADMET Laboratories (Columbia, Md.). The cells were spun in a Beckman centrifuge (Brea, Calif.) with a GH 3.8 rotor at 740 rpm for 10 minutes at […]. The supernatant was removed and the cells were re-suspended in plating media for counting. After the cells were re-suspended in plating media, 20 μL of the re-suspension was transferred and mixed with 20 μL of AOPI staining solution. The solution was gently mixed and cells were counted using a Cellometer (Nexcelom, Lawrence, Mass.). After counting, the cells were then re-suspended at 1 or 2 million viable cells/mL in Williams' E media containing 2 mmol/L L-glutamine (pH 7.4).
(§2) The hepatocyte suspension (50 μL/well) was added into a 48-well plate. […]
(§3) The LC-MS/MS system was composed of a Shimadzu HPLC and an AB-SCIEX TripleTOF 5600 hybrid quadrupole and TOF mass spectrometer (Framingham, Mass.). […] The samples obtained from incubations with hepatocytes were analyzed under both negative and positive scan modes. […]

[2] = tested on: hepatocytes of Beagle dog; assay: Hepatocyte incubation, metabolite identification (dog); type: in vitro ADME; details: 10 μmol/L
Description: as §1, §2, §3

hepatocytes of human = assay: Hepatocyte incubation, metabolite identification (human); type: in vitro ADME; details: 10 μmol/L
Description: as §1, §2, §3

[3] = tested on: hepatocytes of Sprague Dawley rat; assay: Hepatocyte incubation, metabolite identification (rat); type: in vitro ADME; details: 10 μmol/L
Description: as §1, §2, §3

[4] = tested on: primary human PBMC IFNβ protein production; assay: Ex vivo human PBMC stimulation assay, IFNβ protein; type: cell-based; details: average of five donors
Description: After 24 hours of incubation the tubes were centrifuged at 1400 rpm for 5 minutes and supernatants were harvested. Supernatant were stored in −80° C. for subsequent IFNβ measurement. IFNβ measurement was done using Human IFN-β Base Kit (Meso Scale Diagnostics cat # K151ADA) and protocol provided by manufacturer was used. IFN-beta estimation was done by reading assay plate at MESO SECTOR Imager 2400 and using MSD Discovery Workbench 4.0 program. After 24 hours IFNβ protein was analyzed.
Results shown in Table 10 reflect an average of measurements conducted using five different donors.

[5] = tested on: hepatocytes of Cynomolgus monkey; assay: Hepatocyte incubation, metabolite identification (monkey); type: in vitro ADME; details: 10 μmol/L
Description: as §1, §2, §3

[6] = Table 6, head only in drawing 188, ammonium salt form except Compounds 26, 33, 34 (bis-TEA salts)

Chain of Human STING (Q86WV6 whole entry): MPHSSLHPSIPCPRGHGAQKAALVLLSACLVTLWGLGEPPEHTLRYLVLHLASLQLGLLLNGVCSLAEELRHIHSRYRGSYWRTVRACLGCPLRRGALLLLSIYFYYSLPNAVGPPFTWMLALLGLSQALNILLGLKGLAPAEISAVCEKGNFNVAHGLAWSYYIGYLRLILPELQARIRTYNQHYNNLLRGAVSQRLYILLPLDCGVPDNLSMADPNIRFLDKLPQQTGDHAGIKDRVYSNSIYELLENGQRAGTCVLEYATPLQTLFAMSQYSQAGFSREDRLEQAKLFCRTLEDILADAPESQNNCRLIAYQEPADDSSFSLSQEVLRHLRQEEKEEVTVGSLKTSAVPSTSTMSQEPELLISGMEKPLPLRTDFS
Chain of REF Human STING (Q86WV6 whole entry): as above

SMILES: C=CCN(C(=O)c1ccccc1)c1ncnc2c1ncn2[C@@H]1O[C@@H]2COP(=S)(OCCC#N)O[C@H]3[C@@H](F)[C@H](n4cnc5c(N(CC=C)C(=O)c6ccccc6)ncnc54)O[C@@H]3COP(=O)(S)O[C@H]2[C@H]1F (stereo partly drawn)
ring closure, yield of all isomers (from C=CCN(C(=O)c1ccccc1)c1ncnc2c1ncn2[C@@H]1O[C@H](COP(=S)(OCCC#N)O[C@H]2[C@@H](F)[C@H](n3cnc4c(N(CC=C)C(=O)c5ccccc5)ncnc43)O[C@@H]2CO)[C@@H](O[PH](=O)O)[C@H]1F, other bond, 2 steps): 100%

SMILES: CC(C)(C)[Si](C)(C)O[C@@H]1[C@@H]2N[P@@](=S)(OCCC#N)OC[C@H]3O[C@@H]4[C@H](O[Si](C)(C)C(C)(C)C)[C@@H]3N[P@](=S)(OCCC#N)OC[C@H]2O[C@H]1n1cnc2c(ncnc21)N(C(=O)c1ccccc1)CC=CCN(C(=O)c1ccccc1)c1ncnc2c1ncn24
ring closure, yield of all isomers (from C=CCN(C(=O)c1ccccc1)c1ncnc2c1ncn2[C@@H]1O[C@@H]2CO[P@@](=S)(OCCC#N)N[C@H]3[C@@H](O[Si](C)(C)C(C)(C)C)[C@H](n4cnc5c(N(CC=C)C(=O)c6ccccc6)ncnc54)O[C@@H]3CO[P@](=S)(OCCC#N)N[C@H]2[C@H]1O[Si](C)(C)C(C)(C)C, rcm bond): 24.5%

SMILES: CC(C)(C)[Si](C)(C)O[C@H]1[C@H]2O[P@@](=O)(SCc3ccccc3[N+](=O)[O-])OC[C@H]3O[C@@H]4[C@H](F)[C@@H]3O[P@](=O)(SCc3ccccc3[N+](=O)[O-])OC[C@H]1O[C@H]2n1cnc2c(ncnc21)N(C(=O)c1ccccc1)CC=CCN(C(=O)c1ccccc1)c1ncnc2c1ncn24
ring closure, yield of all isomers (from C=CCN(C(=O)c1ccccc1)c1ncnc2c1ncn2[C@@H]1O[C@@H]2CO[P@](=O)(SCc3ccccc3[N+](=O)[O-])O[C@@H]3[C@H](O[Si](C)(C)C(C)(C)C)[C@@H](CO[P@@](=O)(SCc4ccccc4[N+](=O)[O-])O[C@H]2[C@H]1F)O[C@H]3n1cnc2c(N(CC=C)C(=O)c3ccccc3)ncnc21, rcm bond): 6.1%

SMILES: O=C(c1ccccc1)N1CC=CCN(C(=O)c2ccccc2)c2ncnc3c2ncn3[C@@H]2O[C@@H]3CO[P@](=O)(SCc4ccccc4[N+](=O)[O-])O[C@H]4[C@@H](F)[C@@H](O[C@@H]4CO[P@@](=O)(SCc4ccccc4[N+](=O)[O-])O[C@H]3[C@H]2F)n2cnc3c1ncnc32
ring closure, yield of all isomers (from C=CCN(C(=O)c1ccccc1)c1ncnc2c1ncn2[C@@H]1O[C@@H]2CO[P@@](=O)(SCc3ccccc3[N+](=O)[O-])O[C@H]3[C@@H](F)[C@H](n4cnc5c(N(CC=C)C(=O)c6ccccc6)ncnc54)O[C@@H]3CO[P@](=O)(SCc3ccccc3[N+](=O)[O-])O[C@H]2[C@H]1F, rcm bond): 39%

SMILES: O=C(c1ccccc1)N1CC=CCOc2ncnc3c2ncn3[C@@H]2O[C@@H]3COP(=O)(SCc4ccccc4[N+](=O)[O-])O[C@H]4[C@@H](F)[C@@H](O[C@@H]4COP(=O)(SCc4ccccc4[N+](=O)[O-])O[C@H]3[C@H]2F)n2cnc3c1ncnc32 (stereo partly drawn)
ring closure, yield of all isomers (from C=CCOc1ncnc2c1ncn2[C@@H]1O[C@@H]2COP(=O)(SCc3ccccc3[N+](=O)[O-])O[C@H]3[C@@H](F)[C@H](n4cnc5c(N(CC=C)C(=O)c6ccccc6)ncnc54)O[C@@H]3COP(=O)(SCc3ccccc3[N+](=O)[O-])O[C@H]2[C@H]1F, rcm bond): 25.6%

SMILES: O=[N+]([O-])c1ccccc1CSP1(=O)OC[C@H]2O[C@H]([C@H](F)[C@@H]2O)n2cnc3c(ncnc32)CCC=CCCc2ncnc3c2ncn3[C@@H]2O[C@H](CO)[C@@H](O1)[C@H]2F (stereo partly drawn)
ring closure, yield of all isomers (from C=CCCc1ncnc2c1ncn2[C@@H]1O[C@H](COP(=O)(O[C@H]2[C@@H](F)[C@H](n3cnc4c(CCC=C)ncnc43)O[C@@H]2COC(c2ccccc2)(c2ccc(OC)cc2)c2ccc(OC)cc2)SCc2ccccc2[N+](=O)[O-])[C@@H](O)[C@H]1F, rcm bond, 2 steps): 26.2%

SMILES: O=[N+]([O-])c1ccccc1CS[P@]1(=O)OC[C@H]2O[C@@H]3[C@H](F)[C@@H]2O[P@](=O)(SCc2ccccc2[N+](=O)[O-])OC[C@H]2O[C@H]([C@H](F)[C@@H]2O1)n1cnc2c(ncnc21)OCC=CCOc1ncnc2c1ncn23
ring closure, yield of all isomers (from C=CCOc1ncnc2c1ncn2[C@@H]1O[C@@H]2CO[P@@](=O)(SCc3ccccc3[N+](=O)[O-])O[C@H]3[C@@H](F)[C@H](n4cnc5c(OCC=C)ncnc54)O[C@@H]3CO[P@@](=O)(SCc3ccccc3[N+](=O)[O-])O[C@H]2[C@H]1F, rcm bond): 3.6%

SMILES: O=[P@]1(S)OC[C@H]2OC3[C@H](F)[C@@H]2O[P@](=O)(S)OC[C@H]2O[C@H]([C@H](F)[C@@H]2O1)n1cnc2c(ncnc21)NCC1NC1CNc1ncnc2c1ncn23 (single isomer, unassigned) [Compound 35]
EC50 (Human STING; [6]): 67.2 µM

SMILES: O=[P@]1(S)OC[C@H]2OC3[C@H](F)[C@@H]2O[P@](=O)(S)OC[C@H]2O[C@H]([C@H](F)[C@@H]2O1)n1cnc2c(ncnc21)NCC1NC1CNc1ncnc2c1ncn23 (single isomer, unassigned) [Compound 36]
EC50 (Human STING; [6]): 94.1 µM

EC50 (REF Human STING): > 100 µM
SMILES: O=P1(S)OC[C@H]2O[C@@H]3[C@H](F)[C@@H]2OP(=O)(S)OC[C@H]2OC([C@H](F)[C@@H]2O1)n1cnc2c(ncnc21)NCC/C=C/CNc1ncnc2c1ncn23 (single isomer, unassigned) [Compound 37]

metabolites identified (LC-MS/MS) ([1]; mouse hepatocytes): No apparent metabolite | stability in incubations with hepatocytes ([1]; mouse, up to 240 minutes): stable | metabolites identified (LC-MS/MS) ([2]; dog hepatocytes): No apparent metabolite | stability in incubations with hepatocytes ([2]; dog, up to 240 minutes): stable | metabolites identified (LC-MS/MS) (hepatocytes of human; human hepatocytes): No apparent metabolite | stability in incubations with hepatocytes (hepatocytes of human; human, up to 240 minutes): stable | metabolites identified (LC-MS/MS) ([3]; rat hepatocytes): No apparent metabolite | stability in incubations with hepatocytes ([3]; rat, up to 240 minutes): stable | metabolites identified (LC-MS/MS) ([5]; monkey hepatocytes): No apparent metabolite | stability in incubations with hepatocytes ([5]; monkey, up to 240 minutes): stable
SMILES: O=[P@]1(S)OC[C@H]2O[C@@H]3[C@H](F)[C@@H]2O[P@](=O)(S)OC[C@H]2O[C@H]([C@H](F)[C@@H]2O1)n1cnc2c(ncnc21)NC/C=C/CNc1ncnc2c1ncn23 [Compound 1a]
cure rate, treated tumors (CT26 tumors; 0.6 mg/kg, intratumoral single dose (study B)): 20% | animals cured of treated tumor at the end of study (CT26 tumors; 10 mg/kg, intratumoral single dose (study B)): 100% | curative effects, untreated tumors (CT26 tumors; 10 mg/kg, intratumoral single dose into the other tumor): 80% | IFNβ ([4]; 0.1 μM, 24 hours): 21.3 ± 17.8 pg/mL | IFNβ ([4]; 10 μM, 24 hours): 540.2 ± 215.0 pg/mL | IFNβ [4]: 227.5 ± 62.4 pg/mL

EC50 (Human STING; [6]): 7.4 µM
SMILES: O=[P@@]1(S)OC[C@H]2O[C@@H]3[C@H](F)[C@@H]2O[P@](=O)(S)OC[C@H]2OC([C@H](F)[C@@H]2O1)n1cnc2c(ncnc21)OC/C=C/COc1ncnc2c1ncn23 [Compound 26]

SMILES: O=P1(O)OC[C@H]2OC3[C@H](F)[C@@H]2O[P@@](O)(=S)OC[C@H]2O[C@H]([C@H](F)[C@@H]2O1)n1cnc2c(ncnc21)NC/C=C/CNc1ncnc2c1ncn23 [Compound 27]
EC50 (Human STING): 27.6 µM

SMILES: O=P1(O)OC[C@H]2OC3[C@H](F)[C@@H]2O[P@](O)(=S)OC[C@H]2O[C@H]([C@H](F)[C@@H]2O1)n1cnc2c(ncnc21)NC/C=C/CNc1ncnc2c1ncn23 [Compound 28]
EC50 (Human STING): 18.4 µM

EC50 (Human STING; [6]): 8.4 µM
SMILES: O=[P@]1(S)OC[C@H]2OC3[C@H](F)[C@@H]2O[P@](=O)(S)OC[C@H]2O[C@H]([C@H](F)[C@@H]2O1)n1cnc2c(ncnc21)NCC#CCNc1ncnc2c1ncn23 [Compound 29]
